“And” between values parts separate entries of the source, which are not always exact repeats. Equal values may be shown once.
Experiments:
[1] = Caffeine plasma level after sublingual caffeine+capsaicin in ethanol; format: in vivo, human; conditions: 5 cases; sublingual caffeine 200 mg + capsaicin in ethanol
normal, healthy adults = test: Phase I CPC sublingual gel: blood pressure and heart rate; format: in vivo, human; conditions: 15-120 minutes
Description: Study Methods: The design was an open label, phase I, dose escalation, pharmacokinetic study of a novel gel formulation of capsaicin, phenylephrine, and caffeine administered sublingually to normal, healthy adults.
Dosing and Administration: The product was expressed as fast as feasible from the oral syringe sublingually. The subject was asked to have the gel reside under the tongue for 1 minute before it was swallowed and the mouth was rinsed with water. Multiple rinses were allowed.
Of the three active components of the sublingual dosage, the dose of phenylephrine was the focus of dose escalation.
Study Drug Administration: The subject were asked to sit in a chair that allowed access to their mouth and subsequent blood sampling and continuous BP and HR monitoring. After 15-minute rest, vital signs were taken pre-dose, and SBP had to be ≤130 mmHg in order for dose to be given. If SBP>130 mmHg, the blood pressure was checked again in 15 minutes. If the repeat measurement had SBP≤130 mmHg, the first dose of CPC was given.
The study nurse delivered the appropriate dose to the subject using an oral syringe sublingually. The subject allowed the gel to reside under the tongue for 1 minute before the gel was swallowed and the mouth was rinsed with water that was swallowed. Multiple rinses were allowed as was water ad lib. […]

blood donors = conditions: 125 or 250 mg; 95% CI 0.21-0.85; p=0.02; cited from earlier work
A2 adenosine receptor = conditions: cited from earlier work
[2] = single dose of 200-250 mg, cited from earlier work
[3] = system: healthy subjects and 1 patient with a history of VVS; test: Study 2: Capsaicin alone, tilt table testing; format: in vivo, human
Description: In a second study, we tested the effect of Capsaicin alone (50 μL Capsaicin 0.5%) on HR and BP in 3 healthy subjects (1 woman and 2 men mean age 35±18 years) and in 1 patient with a history of VVS during tilt table testing (Table 1).

clinical = conditions: human, in vivo
Description: Pharmacokinetic Sampling: Blood samples were collected via the venous catheter with appropriate pre- and post-sample flushing. If the indwelling venous catheter patency was lost, the phlebotomist or nurse attempted to replace it, if possible. Separate needle sticks could be done for the blood collection.
Samples were collected in 6 mL heparinized tubes at the following time points: Pre-dose, 30 seconds, 1, 2, 5, 15, 30, 45, 60, 90, 120 min, and 3, 4, 6, 8, 12, 24* hours
The lithium heparin tube and 1 K2EDTA tube (capsaicin sample) were immediately placed on ice or refrigerated. […] All blood samples were centrifuged as soon as possible after clotting in a refrigerated centrifuge. The plasma from each tube was equally distributed between 2 polypropylene tubes, labeled and promptly stored at −80° C. until thawed for analysis.

VR1receptor = conditions: micro molar range; cited from earlier work
[4] = system: impending syncope (VVS) patients; conditions: cited from earlier work
[5] = cited from earlier work
impending VVS = conditions: cited from earlier work
[6] = healthy subjects, individual subjects

Cn1c(=O)c2c(ncn2C)n(C)c1=O [Caffeine]
Start of increase in caffeine blood concentration [1]: 30 s
Speculated contribution of Caffeine to SBP elevation (normal, healthy adults): 1-2 mmHg
RR of occurrence of VVRs versus placebo (blood donors): 0.42
Affinity (A2 adenosine receptor): 9 µM
Increase in SBP ([2]; within 30 minutes): 3-14 mmHg
Time of maximal increase in SBP [2]: 60 to 120 min

COc1cc(CNC(=O)CCCC/C=C/C(C)C)ccc1O [Capsaicin, 8-methyl-N-vanillyl-trans 6-nonenamide]
Symptoms after drug ([3]; 1 patient with VVS): no
Time of max SBP increase ([3]; 1 patient with VVS): 1 min
Max SBP after drug ([3]; 1 patient with VVS, pending syncope YES, SBP at time 0 100): 120 mmHg
HR after Drug ([3]; 1 patient with VVS, HR at time 0 56): 80 bpm
SBP after Capsaicin alone, mean ([3]; 3 healthy subjects, from a mean of 120±10 mmHg): 155±5 mmHg
Time of max SBP increase, Mean ([3]; Mean of 3 healthy subjects): 1.3 min
HR after Drug, Mean ([3]; Mean of 3 healthy subjects, HR at time 0 mean 78): 96 bpm
Max SBP after drug, Mean ([3]; Mean of 3 healthy subjects, SBP at time 0 mean 120): 155 mmHg
Max SBP after drug ([3]; healthy subjects, Capsaicin alone 50 μL 0.5%, individual subjects): 160 mmHg and 155 mmHg and 150 mmHg
Effect on SBP ([3]; healthy subjects, conclusion): able to increase SBP
HR after Drug [3, 6]: 100 bpm and 104 bpm and 85 bpm
Symptoms after drug [3, 6]: no
Time of max SBP increase [3, 6]: 1 min (2×) and 2 min
Effect on loss of consciousness ([3]; one VVS patient, conclusion): prevent loss of consciousness
Outcome of tilt test ([3]; patient with VVS): experienced only presyncope
SBP after capsaicin alone ([3]; patient with VVS, at onset of prodromes, from 100 mmHg): 120 mmHg
Time of peak Capsaicin blood level (clinical): around 15 minutes

CNC[C@H](O)c1cccc(O)c1 [PE, phenylephrine]
Speculated contribution of PE to SBP elevation (normal, healthy adults): 1-2 mmHg
PE blood concentration in the current study (clinical): 1 to 2 ng/mL
concentration at 15 min (clinical): ~1 ng/mL
Effect on vagally-induced bradycardia ([4]; in vivo): unable to counteract the vagally-induced bradycardia
Effect on blood pressure ([4]; intra-atrial bolus 1 mg/1 ml at impending syncope): immediate marked increase in blood pressure
Effect on VVS ([4]; intra-atrial bolus 1 mg/1 ml): interrupted VVS in most patients
Time to effect ([4]; mostly): ≤ 20 s
Mean increase in SBP ([5]; PE blood concentration of 20 nM, 3 mcg/L or 3 ng/ml): 3 mmHg
Increase in systolic BP, mean ([5]; PE concentration of 9 mcg/L): 11 mmHg
Increase in systolic BP, range ([5]; PE concentration of 9 mcg/L): 6-20 mmHg

CCNCC(O)c1cccc(O)c1 (centres unmarked) [etilefrine]
Cases in which impending VVS was aborted (impending VVS; intravenous injection, 20% with placebo): 87%
Time to effect (impending VVS; mostly): ≤ 20 s

From patent publication US20210369721A1, “SUBLINGUAL FORMULATION FOR HYPOTENSION AND SYNCOPE” (priority 2020, published 2021)
